Entries after “also recorded” stand apart in the source; their conditions may differ.
Legend:
[1] = in vivo; cited from earlier work
Protocol: Additional work i ... || Despite the promise of protamine as a new treatment approach, this study is subject to several limitations. First, our study was performed in rats. While the rat model has shown strong relevance to the human condition ([14]) with respect to VAN, clinical trials are necessary to confirm the effect. Second, protamine delayed kidney injury by 1–3 days; however, a multi-pronged approach may be needed to fully suppress injury in vancomycin therapy that exceeds 2 days. Third, as noted above, protamine is not a viable therapeutic for patients who require heparin. Fourth, protamine itself is associate ...

[2] = tested on: opossum kidney cells; conditions: cited from earlier work
Source text: Based on chemical structure, we hypothesized that protamine might block megalin and decrease VAN. While relatively little information is available on the megalin-binding capacity of protamine, protamine shares binding sites with heparin (which is the current target for FDA-approved use) and megalin ([30], [31]). […] Megalin antagonists ... || Originally derived from salmon fish sperm (salmine), protamine is a highly positively charged protein consisting of 32 amino acids. Currently, it is widely used as an effective agent to neutralize heparin using electrostatic bonds made between the cationic arginine groups of protamine and the anionic heparin in a 1:1 ratio ([6]). Specifically, protamine shares binding sites with heparin (current target for FDA-approved use) and megalin ([30], [31]). On this note, a clinical limitation for the use of protamine arises for patients who require heparin infusions, such as post-diabetic foot infecti ...

[3] = tested on: OCT2; test: OCT2 inhibition study (HEK cells, metformin substrate); assay type: cell-based; conditions: for Inhibition of OCT2 (in words): metformin 100 µM
Protocol: (§1) Organic anion transporter (OAT1 and OAT3) and OCT2 inhibition studies with protamine sulfate were performed by Eurofins Scientific (St. Charles, MO, USA) as previously described ([38], [39]). Protamine sulfate was dissolved in DMSO to 1.0E-02 M and tested concurrently with p-aminohippurate 10 µM (substrate) for OAT1, ranitidine 10 µM (substrate) for OAT3, and metformin 100 µM (substrate) for OCT2. A pre-incubation time of 30 minutes was used, followed by 20 minutes of incubation with the substrate. CHOK1 cells were used in OAT1 and 3 experiments, and HEK cells were used in OCT2 experiments. The percentage of inhibition was calculated vs the percentage of control. The IC50 value (concentration causing a half-maximal inhibition of the control value) was determined by nonlinear regression analysis of the concentration-response curve from a Hill equation.
(§2) No data were excluded as outliers.

[4] = tested on: OAT1; test: OAT1 inhibition study (CHOK1 cells, p-aminohippurate substrate); assay type: cell-based; conditions: for Inhibition of OAT1 (in words): p-aminohippurate 10 µM
Protocol: as §1, §2

[5] = tested on: OAT3; test: OAT3 inhibition study (CHOK1 cells, ranitidine substrate); assay type: cell-based; conditions: for Inhibition of OAT3 (in words): ranitidine 10 µM
Protocol: as §1, §2

[6] = tested on: Urinary KIM-1; test: Urinary KIM-1 kidney injury in rats given vancomycin and/or protamine
Protocol: Male Sprague-Dawley rats (n = 19; age 8–10 weeks; 268–304 g; Envigo, Indianapolis, IN, USA) underwent double jugular catheterization ([33]) (Fig. 3A). Surgery was performed under ketamine (100 mg/kg of body weight) and xyalzine (10 mg/kg of body weight) anesthesia with buprenorphine (0.02 mg/kg of body weight) given post-operatively for pain management. Animals were allowed to recover 4 days before the administration of any drug. Animals were housed in metabolic cages starting 1 day prior to day 0 with access to food and water ad libitum for the duration of the study (Fig. 3B).
Animals were divided into three experimental treatment protocols. Using a dedicated jugular vein for dosing, the animals received clinical grade intravenous protamine and/or vancomycin in doses allometrically scaled to humans according to the following protocols: (i) protamine sulfate (1.5 mg/kg of body weight) and vancomycin (150 mg/kg of body weight) (n = 6); (ii) protamine only (1.5 mg/kg of body weight) with saline sham (sham for volume of vancomycin) (n = 7); or (iii) vancomycin only (150 mg/kg of body weight) with saline sham (sham for volume of protamine) (n = 6) ([34][–][36]). Saline sham was given to match the volumes of protamine and vancomycin doses to maintain euvolemia. On day 0, all animals received only iohexol (51.8 mg/day) intravenously to establish baseline GFR measurements. Drugs were administered as described above by treatment protocols to all groups on days 1–4. Infusion times for each of the drugs include (i) protamine sulfate, 5 minutes; (ii) vancomycin and iohexol, 2 minutes; and (iii) saline sham, 5 or 2 minutes depending on what the sham was replacing.
Urine samples were collected daily, and volumes were measured starting from day 0 to day 4. Samples were centrifuged at 500 g for 10 minutes, and the resulting supernatant was aliquoted (1.5 mL) and stored at −80°C for renal biomarker analysis later.
Urinary samples were analyzed for KIM-1 using the Milliplex MAP Rat Kidney Toxicity Magnetic Bead Panel 1 (EMD Millipore Corporation, Charles, MO, USA) according to the manufacturer’s directions and as previously described ([34], [36], [37]). Briefly, neat urine aliquots were mixed with monoclonal antibody-coated magnetic microbeads (Bead Panel 1) and run on a 96-well plate, which also included a standard curve. Biomarker data were acquired, and concentrations were analyzed using Belysa Immunoassay Curve-Fitting Software V1 (MilliporeSigma, Darmstadt, Germany). The amount of urinary KIM-1 excreted over the 24-h collection period was obtained by multiplying the urinary concentration by 24-h urinary volume.
An omnibus test, i.e., joint tests (multi-degree of freedom) of the interaction and main effects, which is similar to the F test in ANOVA, was used initially (STATA 17.0 BE, StataCorp LLC, College Station, TX, USA). Only models with significant interaction at P < 0.05 were selected for post hoc analysis (i.e., identification of the difference between treatment groups and days). Margins were calculated for a full factorial of the variables, i.e., main effects for each variable and interactions. Referent groups were pre-treatment baseline values and protamine alone as a treatment, except where noted. […] LOWESS graphs were produced in R version 4.2.2 using ggplot2. […] All tests were two-tailed; a P < 0.05 was required for statistical significance. Graphs for cellular studies were generated using GraphPad version 9.3.1 and were fit with a log(inhibitor) vs normalized response function after log transformation.

[7] = CHOK1 cells, listed as protamine

Substance: Protamine
- Safety liabilities (in words) [1]: severe hypotension and anaphylactoid-like reactions
- Toxicities (in words) [1]: cardiopulmonary dysfunction and shock as well as antibody-mediated hypersensitivity reactions
- Entry into kidney epithelial cells (in words) [2]: enters kidney epithelial cells and localizes in the cytoplasm via receptor-mediated endocytosis
- Inhibition of gentamicin uptake (in words) ([2]; cultured opossum kidney cells that expressed megalin and cubilin, ref Nagai and colleagues ([32])): inhibited the uptake of gentamicin
- Prevention of gentamicin accumulation (in words) ([2]; kidney epithelial cells): has demonstrated prevention of gentamicin accumulation
- Inhibition of OCT2 (in words) ([3]; HEK cells): does not appear to have significant inhibition on OAT1, OAT3, or OCT2
- IC50 ([3]; HEK cells, metformin 100 µM substrate, pre-incubation 30 minutes, 20 minutes with substrate, protamine sulfate in DMSO, Eurofins): 43 µM
- Inhibition of OCT2 (in words) ([3]; HEK cells, listed as protamine): No substantial inhibition; also recorded: does not have a significant inhibition on OAT1, OAT3, or OCT2 except at extremely high concentrations; also recorded: minor inhibition
- IC50 ratio protamine vs verapamil ([3]; OCT2): 5.2 times higher
- Inhibition of OCT-2 ([3]; at similar concentrations (to 0.1 mM) of protamine, Fig. 6): at least 50%
- Inhibition of OAT1 (in words) ([4]; CHOK1 cells): does not appear to have significant inhibition on OAT1, OAT3, or OCT2
- IC50 ([4]; CHOK1 cells, p-aminohippurate 10 µM substrate, pre-incubation 30 minutes, 20 minutes with substrate, protamine sulfate in DMSO, Eurofins): 100 µM
- Inhibition of OAT1 (in words) [4, 7]: No substantial inhibition; also recorded: does not have a significant inhibition on OAT1, OAT3, or OCT2 except at extremely high concentrations; also recorded: little to no inhibition
- IC50 ratio protamine vs probenecid ([4]; OAT1): 62.5 times higher
- Inhibition of OAT-1 ([4]; at 0.1 mM protamine, Fig. 6): < 50%
- Inhibition of OAT3 (in words) ([5]; CHOK1 cells): does not appear to have significant inhibition on OAT1, OAT3, or OCT2
- IC50 ([5]; CHOK1 cells, ranitidine 10 µM substrate, pre-incubation 30 minutes, 20 minutes with substrate, protamine sulfate in DMSO, Eurofins): 100 µM
- Inhibition of OAT3 (in words) [5, 7]: No substantial inhibition; also recorded: does not have a significant inhibition on OAT1, OAT3, or OCT2 except at extremely high concentrations; also recorded: little to no inhibition
- IC50 ratio protamine vs probenecid ([5]; OAT3): 58.8 times higher
- Inhibition of OAT-3 ([5]; at 0.1 mM protamine, Fig. 6): < 50%
- Protective effect against vancomycin-associated nephrotoxicity (in words) ([6]; addition of protamine to vancomycin): provides a protective effect against vancomycin-associated nephrotoxicity
- Delay of vancomycin-induced kidney injury as defined by urinary KIM-1 ([6]; protamine added to vancomycin therapy): 1 to 3 days
- KIM-1 change from baseline of day 1 (in words) ([6]; rat, in vivo): did not have a KIM-1 increase over the 4 days
- KIM-1 compared to protamine alone (in words) ([6]; rat, in vivo): did not experience this increase on day 2
- KIM-1 compared to vancomycin alone (in words) ([6]; rat, in vivo): numerically similar to animals that received vancomycin alone
- Injury prevention (in words) ([6]; urinary KIM-1, protamine with vancomycin): a full day of injury prevention
